Results from ChEMBL document CHEMBL1201862, “PubChem BioAssay data set” (2004).
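Where inhibition never reached the appropriate level, the endpoint shown equals the highest concentration tested. Otherwise, values were interpolated linearly from a five-concentration, 48-hour dose response in 96-well plates. At the GI50, growth is halved.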 Active and inactive are the calls of the source. Cut-off read from the data, not from the text of the source: active = GI50 up to about 1.1 µM and inactive = higher.

Assays:
Assay in all cases: NCI anticancer screen, dose series, 48 h
UACC-62 = system: UACC-62
HCT-15 = system: HCT-15
IGROV-1 = system: IGROV-1
BT-549 = system: BT-549
ACHN = system: ACHN
NCI/ADR-RES = system: NCI/ADR-RES
LOX IMVI = system: LOX IMVI
SNB-75 = system: SNB-75
HT-29 = system: HT-29
KM12 = system: KM12
HCT-116 = system: HCT-116
Hs-578T = system: Hs-578T
T47D = system: T47D
MCF7 = system: MCF7
MDA-MB-435 = system: MDA-MB-435
PC-3 = system: PC-3
TK-10 = system: TK-10
SK-MEL-2 = system: SK-MEL-2
MDA-N = system: MDA-N
SK-MEL-28 = system: SK-MEL-28
HOP-62 = system: HOP-62
DU-145 = system: DU-145
OVCAR-4 = system: OVCAR-4
SK-OV-3 = system: SK-OV-3
Malme-3M = system: Malme-3M
NCI-H460 = system: NCI-H460
NCI-H23 = system: NCI-H23
UO-31 = system: UO-31
NCI-H522 = system: NCI-H522
CAKI-1 = system: CAKI-1
CCRF-CEM = system: CCRF-CEM
RPMI-8226 = system: RPMI-8226
EKVX = system: EKVX
OVCAR-8 = system: OVCAR-8
RXF 393 = system: RXF 393
SF-295 = system: SF-295
786-0 = system: 786-0
OVCAR-5 = system: OVCAR-5
MOLT-4 = system: MOLT-4
U-251 = system: U-251
SR = system: SR
SN12C = system: SN12C
M14 = system: M14
SK-MEL-5 = system: SK-MEL-5
SW-620 = system: SW-620
UACC-257 = system: UACC-257
COLO 205 = system: COLO 205
A549 = system: A549
SF-268 = system: SF-268
HOP-92 = system: HOP-92
NCI-H226 = system: NCI-H226
SNB-19 = system: SNB-19
HCC 2998 = system: HCC 2998
A498 = system: A498
OVCAR-3 = system: OVCAR-3
MDA-MB-231 = system: MDA-MB-231
SF-539 = system: SF-539
K562 = system: K562

CCOC(=O)CCC(NC(=O)OCc1ccccc1)C(=O)NC(CCC(=O)OCC)C(=O)NC(CCC(=O)OCC)C(=O)NC(CCC(=O)OCC)C(=O)NC(CCC(=O)OCC)C(=O)OCC (configuration not stated)
GI50 (UACC-62): > 100 µM (inactive)
GI50 (HCT-15): > 100 µM
GI50 (IGROV-1): > 100 µM (inactive)
GI50 (BT-549): > 100 µM (inactive)
GI50 (ACHN): > 100 µM (inactive)
GI50 (NCI/ADR-RES): > 100 µM (inactive)
GI50 (LOX IMVI): > 100 µM (inactive)
GI50 (SNB-75): > 100 µM (inactive)
GI50 (HT-29): > 100 µM (inactive)
GI50 (KM12): > 100 µM (inactive)
GI50 (HCT-116): > 100 µM (inactive)
GI50 (Hs-578T): > 100 µM (inactive)
GI50 (T47D): > 100 µM (inactive)
GI50 (MCF7): > 100 µM (inactive)
GI50 (MDA-MB-435): > 100 µM (inactive)
GI50 (PC-3): > 100 µM (inactive)
GI50 (TK-10): > 100 µM (inactive)
GI50 (SK-MEL-2): > 100 µM (inactive)
GI50 (MDA-N): > 100 µM (inactive)
GI50 (SK-MEL-28): > 100 µM (inactive)
GI50 (HOP-62): > 100 µM (inactive)
GI50 (DU-145): > 100 µM (inactive)
GI50 (OVCAR-4): > 100 µM (inactive)
GI50 (SK-OV-3): > 100 µM (inactive)
GI50 (Malme-3M): > 100 µM (inactive)
GI50 (NCI-H460): > 100 µM (inactive)
GI50 (NCI-H23): > 100 µM (inactive)
GI50 (UO-31): > 100 µM (inactive)
GI50 (NCI-H522): > 100 µM (inactive)
GI50 (CAKI-1): > 100 µM (inactive)
GI50 (CCRF-CEM): > 100 µM (inactive)
GI50 (RPMI-8226): > 100 µM (inactive)
GI50 (EKVX): > 100 µM (inactive)
GI50 (OVCAR-8): > 100 µM (inactive)
GI50 (RXF 393): > 100 µM (inactive)
GI50 (SF-295): > 100 µM (inactive)
GI50 (786-0): > 100 µM (inactive)
GI50 (OVCAR-5): > 100 µM (inactive)
GI50 (MOLT-4): > 100 µM (inactive)
GI50 (U-251): > 100 µM (inactive)
GI50 (SR): > 100 µM (inactive)
GI50 (SN12C): > 100 µM (inactive)
GI50 (M14): > 100 µM (inactive)
GI50 (SK-MEL-5): > 100 µM (inactive)
GI50 (SW-620): > 100 µM (inactive)
GI50 (UACC-257): > 100 µM (inactive)
GI50 (COLO 205): > 100 µM (inactive)
GI50 (A549): > 100 µM (inactive)

O=C1C(=CNc2ccccc2Cl)C(=O)N(c2ccccc2)C(=O)N1c1ccccc1
GI50 (SF-268): > 100 µM (inactive)
GI50 (UACC-62): > 100 µM (inactive)
GI50 (HCT-15): > 100 µM
GI50 (IGROV-1): > 100 µM (inactive)
GI50 (BT-549): > 100 µM (inactive)
GI50 (ACHN): > 100 µM (inactive)
GI50 (NCI/ADR-RES): > 100 µM (inactive)
GI50 (LOX IMVI): > 100 µM (inactive)
GI50 (HT-29): > 100 µM (inactive)
GI50 (KM12): > 100 µM (inactive)
GI50 (HCT-116): > 100 µM (inactive)
GI50 (Hs-578T): 80.4 µM (inactive)
GI50 (T47D): > 100 µM (inactive)
GI50 (MCF7): > 100 µM (inactive)
GI50 (HOP-92): > 100 µM (inactive)
GI50 (NCI-H226): > 100 µM (inactive)
GI50 (MDA-MB-435): > 100 µM (inactive)
GI50 (PC-3): > 100 µM (inactive)
GI50 (TK-10): > 100 µM (inactive)
GI50 (SK-MEL-2): 27.9 µM (inactive)
GI50 (MDA-N): > 100 µM (inactive)
GI50 (HOP-62): > 100 µM (inactive)
GI50 (SNB-19): > 100 µM (inactive)
GI50 (OVCAR-4): > 100 µM (inactive)
GI50 (SK-OV-3): > 100 µM (inactive)
GI50 (HCC 2998): > 100 µM (inactive)
GI50 (Malme-3M): > 100 µM (inactive)
GI50 (NCI-H460): > 100 µM (inactive)
GI50 (NCI-H23): > 100 µM (inactive)
GI50 (A498): 85.1 µM (inactive)
GI50 (UO-31): > 100 µM (inactive)
GI50 (NCI-H522): > 100 µM (inactive)
GI50 (CAKI-1): > 100 µM (inactive)
GI50 (CCRF-CEM): > 100 µM (inactive)
GI50 (RPMI-8226): > 100 µM (inactive)
GI50 (EKVX): > 100 µM (inactive)
GI50 (OVCAR-3): > 100 µM (inactive)
GI50 (OVCAR-8): 23.7 µM (inactive)
GI50 (RXF 393): > 100 µM (inactive)
GI50 (MDA-MB-231): > 100 µM (inactive)
GI50 (SF-295): > 100 µM (inactive)
GI50 (786-0): > 100 µM (inactive)
GI50 (OVCAR-5): > 100 µM (inactive)
GI50 (MOLT-4): > 100 µM (inactive)
GI50 (U-251): > 100 µM (inactive)
GI50 (SN12C): > 100 µM (inactive)
GI50 (M14): 92.7 µM (inactive)
GI50 (SK-MEL-5): > 100 µM (inactive)
GI50 (SW-620): > 100 µM (inactive)
GI50 (SF-539): > 100 µM (inactive)
GI50 (UACC-257): > 100 µM (inactive)
GI50 (COLO 205): > 100 µM (inactive)
GI50 (K562): > 100 µM (inactive)
GI50 (A549): > 100 µM (inactive)
